The nature of series [1]: Toxicity in BALB/c mouse implanted with mouse 4T1 cells assessed as pathological changes in lung at 50 mg/kg, ip measured after 25 days by Hematoxylin -eosin staining based analysis. It is filed as organism-based. The following applies: in vivo, 600 h, time 25 day.
Series [2] can be described thus: Toxicity in BALB/c mouse implanted with mouse 4T1 cells assessed as pathological changes in liver at 50 mg/kg, ip measured after 25 days in presence of cisplatin by Hematoxylin -eosin staining based analysis. It is filed as organism-based. The following applies: in vivo, 600 h, time 25 day.
The nature of series [3]: Toxicity in BALB/c nude mouse xenografted with human MDA-MB-231 cells assessed as effect on hematocrit level at 50 mg/kg, ip measured after 30 days by routine blood test. The conditions noted are these: in vivo, 720 h, time 30 day. It is filed as organism-based.
Series [4] in a line: Toxicity in BALB/c nude mouse xenografted with human MDA-MB-231 cells assessed as effect on mean corpuscular hemoglobin at 50 mg/kg, ip measured after 30 days by routine blood test. The conditions noted are these: in vivo, 720 h, time 30 day. It is filed as organism-based.
In series [5] the test system is MDA-MB-231. Description: Induction of pyroptosis in human MDA-MB-231 cells assessed as decrease in full length GSDME level at 20 uM incubated for 36 hrs by Western blot analysis. It is filed as functional, cell-based.
In series [6] the test system is 4T1. The series is described as follows: Induction of pyroptosis in mouse 4T1 cells assessed as increase in N-terminal GSDME level at 20 uM incubated for 36 hrs. It is filed as functional, cell-based.
Series [7] deals with 4T1. The series is described as follows: Induction of mitochondrial damage in mouse 4T1 cells assessed as reduction in LDH level at 20 uM measured for 36 hrs. It is filed as functional, cell-based.
Series [8] is described as follows: Cytotoxicity against human HUVEC-T1 cell assessed as inhibition of cell growth at 1 to 100 uM incubated for 48 hrs by CCK-8 assay. The conditions noted are these: dose 1-100 µM. It is filed as toxicity, cell-based.
For series [9], the target named is Protein cereblon/Hexokinase-2 (Mus musculus) (UniProt O08528+Q8C7D2). Description: PROTAC activity at CRBN/HK2 in mouse 4T1 cells assessed as […] ternary complex formation at 10 uM incubated for 24 hrs. It is filed as cell-based.
Chain of Protein cereblon/Hexokinase-2 (Mus musculus) (O08528 whole entry, looked up): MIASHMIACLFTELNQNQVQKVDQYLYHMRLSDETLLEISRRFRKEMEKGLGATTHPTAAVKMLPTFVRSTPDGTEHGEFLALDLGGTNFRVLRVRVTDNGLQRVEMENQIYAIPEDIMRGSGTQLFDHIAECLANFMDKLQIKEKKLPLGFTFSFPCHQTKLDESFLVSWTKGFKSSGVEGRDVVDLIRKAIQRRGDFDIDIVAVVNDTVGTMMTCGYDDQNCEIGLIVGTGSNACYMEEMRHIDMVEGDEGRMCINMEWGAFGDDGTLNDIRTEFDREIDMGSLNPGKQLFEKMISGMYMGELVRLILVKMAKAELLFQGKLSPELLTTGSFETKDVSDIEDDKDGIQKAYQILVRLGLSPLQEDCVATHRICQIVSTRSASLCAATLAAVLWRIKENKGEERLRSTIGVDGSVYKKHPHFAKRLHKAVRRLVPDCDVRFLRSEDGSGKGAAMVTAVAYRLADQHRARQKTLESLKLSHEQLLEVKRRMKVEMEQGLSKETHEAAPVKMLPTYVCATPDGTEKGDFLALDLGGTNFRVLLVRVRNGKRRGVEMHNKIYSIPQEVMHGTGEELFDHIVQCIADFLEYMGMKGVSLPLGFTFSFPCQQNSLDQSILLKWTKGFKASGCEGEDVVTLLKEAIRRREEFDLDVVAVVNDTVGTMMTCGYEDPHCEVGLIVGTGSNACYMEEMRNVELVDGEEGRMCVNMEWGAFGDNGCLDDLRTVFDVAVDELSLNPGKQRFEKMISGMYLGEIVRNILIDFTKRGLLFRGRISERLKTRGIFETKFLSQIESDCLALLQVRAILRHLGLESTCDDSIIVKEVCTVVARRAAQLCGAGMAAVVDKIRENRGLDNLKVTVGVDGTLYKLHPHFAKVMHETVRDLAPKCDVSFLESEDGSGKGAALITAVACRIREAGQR
Chain of Protein cereblon/Hexokinase-2 (Mus musculus) (Q8C7D2 whole entry, looked up): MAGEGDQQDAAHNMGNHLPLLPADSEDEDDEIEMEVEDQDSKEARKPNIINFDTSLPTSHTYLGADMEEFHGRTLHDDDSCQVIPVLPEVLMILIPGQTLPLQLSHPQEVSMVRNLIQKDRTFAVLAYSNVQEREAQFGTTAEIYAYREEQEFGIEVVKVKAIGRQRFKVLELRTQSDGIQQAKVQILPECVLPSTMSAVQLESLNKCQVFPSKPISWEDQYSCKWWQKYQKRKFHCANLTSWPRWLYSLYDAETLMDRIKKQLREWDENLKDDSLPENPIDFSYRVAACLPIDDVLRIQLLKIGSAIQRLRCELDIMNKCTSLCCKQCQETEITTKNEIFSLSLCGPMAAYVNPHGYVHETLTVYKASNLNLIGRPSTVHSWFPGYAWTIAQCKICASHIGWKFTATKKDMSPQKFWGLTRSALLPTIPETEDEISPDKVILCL
Series [10] relates to 4T1. Description: Induction of pyroptosis in mouse 4T1 cells assessed as late apoptotic cells at 20 uM incubated for 36 hrs by annexin V-FITC staining based flow cytometry analysis (Rvb =13.6 %). It is filed as functional.
The test system of series [11] is 4T1. The series is described as follows: Antitumor immunity against mouse 4T1 cells implanted in BALB/c mouse model assessed as upregulation of Il-1beta expression in mouse tumor by ELISA analysis. It is filed as functional, cell-based.
Series [12] can be described thus: Toxicity in BALB/c mouse implanted with mouse 4T1 cells assessed as pathological changes in liver at 50 mg/kg, ip measured after 25 days by Hematoxylin -eosin staining based analysis. It is filed as organism-based. The conditions noted are these: in vivo, 600 h, time 25 day.
Series [13] in a line: Toxicity in BALB/c mouse implanted with mouse 4T1 cells assessed as colon damage at 50 mg/kg, ip measured after 25 days in presence of cisplatin by H and E staining based analysis. It is filed as organism-based. The conditions noted are these: in vivo, 600 h, time 25 day.
Series [14] relates to MDA-MB-231. Description: Antitumor activity against human MDA-MB-231 cells xenografted in BALB/c nude mouse assessed as increase in N-terminal GSDME level at 50 mg/kg, ip measured after 28 days. It is filed as functional, organism-based. The following applies: time 28.0 day.
The subject of series [15] is MDA-MB-231. The series is described as follows: Induction of pyroptosis in human MDA-MB-231 cells assessed as increase in cleaved caspase-3 level level at 20 uM incubated for 36 hrs by Western blot analysis. It is filed as functional, cell-based.

Structures are written as SMILES. Activity calls are given as the source filed them. The rule behind the calls is not given here.

Regarding `O=C1CCC(N2C(=O)c3cccc(NCCCCNC(=O)c4nn(Cc5ccc(Cl)cc5Cl)c5ccccc45)c3C2=O)C(=O)N1` (stereo not given), the Activity result in [1] is “Non-Toxic”; in series [2] it was “Non-Toxic”; in series [3], “Non-Toxic”; in series [4], “Non-Toxic”; in series [8], “Toxic”; in the series with 4T1 [10] it was 43%. In addition, the Activity result in [12] and in series [13] was “Non-Toxic” in each case. For the same molecule, the result (in the series on MDA-MB-231 [5]; in the series with 4T1 [6]; in the series with 4T1 [7]; in series [9]; in the series on 4T1 [11]; with MDA-MB-231 [14]) was Active. In addition, in the series on MDA-MB-231 [15], the outcome was Active.

These data come from ChEMBL document CHEMBL5331124, “Degradation of Hexokinase 2 Blocks Glycolysis and Induces GSDME-Dependent Pyroptosis to Amplify Immunogenic Cell Death for Breast Cancer Therapy” (J Med Chem, 2023).
